As usually defined, the EC50 is the concentration needed to bring the measured effect to its halfway point. The bioavailability is dose-corrected exposure relative to a reference, in per cent. A word on the clearance: it is the volume of plasma or blood freed of the substance per unit of time. As usually defined, the AUC(0-t) is exposure summed from dosing to a finite time, without extrapolation to infinity. The term half-life denotes the time needed for the level to fall by half in the phase considered. Broadly, the fraction unbound is free concentration divided by total concentration. In general, IC50 refers to the concentration that gives 50% inhibition.

The target of data set [1] is T1, Nuclear receptor ROR-beta (Homo sapiens, UniProt Q92753).
T1 sequence (Q92753 whole entry): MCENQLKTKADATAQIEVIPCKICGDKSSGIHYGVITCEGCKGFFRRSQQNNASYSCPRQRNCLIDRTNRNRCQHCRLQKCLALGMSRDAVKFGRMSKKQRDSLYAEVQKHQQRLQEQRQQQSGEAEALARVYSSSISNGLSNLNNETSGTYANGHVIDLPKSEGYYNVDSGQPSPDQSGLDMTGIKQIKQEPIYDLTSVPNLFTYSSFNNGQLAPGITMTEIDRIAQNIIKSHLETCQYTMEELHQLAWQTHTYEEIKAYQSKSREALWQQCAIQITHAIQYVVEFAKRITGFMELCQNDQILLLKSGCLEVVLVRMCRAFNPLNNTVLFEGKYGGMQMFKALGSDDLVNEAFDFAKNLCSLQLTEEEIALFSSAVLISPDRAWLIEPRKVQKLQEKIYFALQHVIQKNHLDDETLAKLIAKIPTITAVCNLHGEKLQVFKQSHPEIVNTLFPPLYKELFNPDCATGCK
Kind of data set: Inverse agonist activity at Gal4-fused RORbeta (unknown origin).

Data set [2] is described as follows: Oral bioavailability in dog at 1 mg/kg. It is filed as ADME, organism-based, Canis lupus familiaris. The conditions noted are these: in vivo.
A short description of data set [3]: Clearance in mouse at 2 mg/kg, iv. It is filed as ADME, organism-based. As to conditions: in vivo.
The nature of data set [4]: AUC (0 to 24 hrs) in Balb/c mouse at 10 mg/kg, po. It counts as ADME, organism-based. Also on record: dose 10 mg/kg, time < 24 hr, route oral. The conditions noted are these: in vivo.
Data set [5] is described as follows: Half life in mouse liver microsomes in presence of NADPH by LC/MS/MS method. It counts as ADME, Microsome. The conditions noted are these: liver microsomes. Background: Microsomes from liver hold many membrane-bound enzymes, among them those of drug oxidation.
Data set [6] is described as follows: Fraction unbound in human plasma. It counts as ADME, cell-free.
A short description of data set [7]: AUC (0 to 24 hrs) in cynomolgus monkey at 1 mg/kg, po. It is filed as ADME, organism-based, Macaca fascicularis. Also on record: dose 1 mg/kg, time < 24 hr, route oral. The conditions noted are these: in vivo.
The target of data set [8] is T2, Oxysterols receptor LXR-alpha (Homo sapiens, UniProt Q13133).
T2 sequence (Q13133 whole entry): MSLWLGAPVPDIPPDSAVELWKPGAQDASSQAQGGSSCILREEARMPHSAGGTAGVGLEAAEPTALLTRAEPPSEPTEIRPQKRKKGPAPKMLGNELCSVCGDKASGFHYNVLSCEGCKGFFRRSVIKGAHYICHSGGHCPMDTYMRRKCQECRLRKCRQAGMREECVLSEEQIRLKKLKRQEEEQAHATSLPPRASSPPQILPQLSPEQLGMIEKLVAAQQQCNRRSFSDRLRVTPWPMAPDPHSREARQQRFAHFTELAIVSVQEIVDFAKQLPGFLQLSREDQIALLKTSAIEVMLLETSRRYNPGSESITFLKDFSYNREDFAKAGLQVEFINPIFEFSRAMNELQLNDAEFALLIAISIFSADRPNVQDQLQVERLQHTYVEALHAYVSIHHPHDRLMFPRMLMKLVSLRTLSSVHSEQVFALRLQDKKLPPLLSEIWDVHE
Description: Inverse agonist activity at LXRalpha (unknown origin).

A further data set has as its target T3, Cytochrome P450 2C8 (Homo sapiens, UniProt P10632).
T3 sequence (P10632 whole entry): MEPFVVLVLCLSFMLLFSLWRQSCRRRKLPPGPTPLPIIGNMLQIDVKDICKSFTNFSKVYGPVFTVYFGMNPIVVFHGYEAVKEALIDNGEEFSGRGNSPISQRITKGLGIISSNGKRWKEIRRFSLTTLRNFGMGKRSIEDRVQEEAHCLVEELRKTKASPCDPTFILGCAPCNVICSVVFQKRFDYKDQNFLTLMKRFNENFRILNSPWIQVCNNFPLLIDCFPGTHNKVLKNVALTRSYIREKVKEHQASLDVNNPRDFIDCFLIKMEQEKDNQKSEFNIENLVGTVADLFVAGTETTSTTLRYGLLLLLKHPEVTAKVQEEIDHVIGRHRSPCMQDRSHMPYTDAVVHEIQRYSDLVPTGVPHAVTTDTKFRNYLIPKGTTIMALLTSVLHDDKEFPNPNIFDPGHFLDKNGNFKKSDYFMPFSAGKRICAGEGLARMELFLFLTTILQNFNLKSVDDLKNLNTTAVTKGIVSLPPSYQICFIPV
Description: Inhibition of recombinant CYP2C8 (unknown origin). It counts as ADME.

Data set [9] is described as follows: Clearance in cynomolgus monkey at 1 mg/kg, iv. It is filed as ADME, organism-based, Macaca fascicularis. As to conditions: in vivo.
Data set [10] can be described thus: Half life in rat at 2 mg/kg, iv. It is filed as ADME, organism-based. The conditions noted are these: in vivo.
Data set [11] deals with T4, Nuclear receptor ROR-gamma (Mus musculus, UniProt P51450).
T4 sequence (P51450 whole entry): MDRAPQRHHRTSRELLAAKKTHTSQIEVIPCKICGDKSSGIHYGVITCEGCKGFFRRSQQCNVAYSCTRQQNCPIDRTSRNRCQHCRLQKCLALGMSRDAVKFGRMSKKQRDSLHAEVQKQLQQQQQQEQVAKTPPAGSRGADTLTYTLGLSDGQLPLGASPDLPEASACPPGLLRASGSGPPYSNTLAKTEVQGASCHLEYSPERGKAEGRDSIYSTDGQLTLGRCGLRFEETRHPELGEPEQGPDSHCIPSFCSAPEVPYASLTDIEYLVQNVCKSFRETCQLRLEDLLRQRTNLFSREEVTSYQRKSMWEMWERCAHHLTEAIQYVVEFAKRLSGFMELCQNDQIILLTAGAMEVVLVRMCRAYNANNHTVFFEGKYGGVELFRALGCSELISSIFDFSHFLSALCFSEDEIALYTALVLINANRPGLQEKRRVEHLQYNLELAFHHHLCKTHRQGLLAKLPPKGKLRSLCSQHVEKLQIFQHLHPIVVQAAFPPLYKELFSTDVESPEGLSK
Kind of data set: Inverse agonist activity at RORgammat in mouse whole blood assessed as suppression of […] secretion. It is filed as tissue-based.

Data set [12] can be described thus: Half life in dog at 1 mg/kg, iv. It is filed as ADME, organism-based, Canis lupus familiaris. The conditions noted are these: in vivo.
Data set [13] in a line: Fraction unbound in rat plasma. It is filed as ADME, cell-free.
Another data set concerns the target T5, Cytochrome P450 1A2 (Homo sapiens, UniProt P05177).
T5 sequence (P05177 whole entry): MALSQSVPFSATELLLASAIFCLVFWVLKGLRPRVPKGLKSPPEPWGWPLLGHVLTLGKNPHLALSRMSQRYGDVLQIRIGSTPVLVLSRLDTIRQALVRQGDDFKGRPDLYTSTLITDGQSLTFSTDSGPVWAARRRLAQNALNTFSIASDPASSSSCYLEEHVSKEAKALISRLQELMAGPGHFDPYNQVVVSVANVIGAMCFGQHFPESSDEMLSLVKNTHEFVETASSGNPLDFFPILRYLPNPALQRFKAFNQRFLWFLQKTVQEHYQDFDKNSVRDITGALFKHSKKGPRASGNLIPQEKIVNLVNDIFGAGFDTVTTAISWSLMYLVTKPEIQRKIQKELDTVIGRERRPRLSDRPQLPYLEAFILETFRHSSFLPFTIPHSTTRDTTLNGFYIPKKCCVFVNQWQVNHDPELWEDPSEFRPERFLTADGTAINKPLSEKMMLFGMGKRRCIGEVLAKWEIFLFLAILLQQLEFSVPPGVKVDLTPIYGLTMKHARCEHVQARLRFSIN
Kind of data set: Inhibition of recombinant CYP1A2 (unknown origin). It is filed as ADME.

For a further data set, the target named is Cytochrome P450 3A4 (Homo sapiens, UniProt P08684). Description: Inhibition of recombinant CYP3A4 (unknown origin). It is filed as ADME.
Cytochrome P450 3A4, sequence (P08684 whole entry): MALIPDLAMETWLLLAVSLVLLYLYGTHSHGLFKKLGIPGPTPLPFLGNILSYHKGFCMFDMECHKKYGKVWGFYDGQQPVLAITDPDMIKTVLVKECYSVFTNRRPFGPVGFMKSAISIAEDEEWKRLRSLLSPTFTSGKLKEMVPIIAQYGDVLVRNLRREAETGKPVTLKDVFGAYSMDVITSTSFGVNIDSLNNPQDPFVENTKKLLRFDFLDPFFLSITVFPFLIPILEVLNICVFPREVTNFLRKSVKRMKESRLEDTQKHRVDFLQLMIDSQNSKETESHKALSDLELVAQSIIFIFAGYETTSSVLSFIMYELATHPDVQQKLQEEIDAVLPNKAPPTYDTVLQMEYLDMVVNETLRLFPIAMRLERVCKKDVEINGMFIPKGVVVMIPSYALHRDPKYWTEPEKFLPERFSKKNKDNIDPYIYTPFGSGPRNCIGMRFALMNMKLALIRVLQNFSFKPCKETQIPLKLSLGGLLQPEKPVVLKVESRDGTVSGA

For `C[C@H]1C[C@H](C(=O)O)CC[C@H]1C(=O)N1CC[C@@]2(S(=O)(=O)c3ccc(F)cc3)c3ccc(C(F)(C(F)(F)F)C(F)(F)F)cc3CC[C@@H]12` [BMS-986251], the EC50 is more than 10 µM in data set [1], more than 7.5 µM in data set [8] and 0.011 µM in data set [11]. In data set [2], this molecule registered a bioavailability of 100%. For the same molecule, the clearance in data set [3] is 2.7 mL/min/kg; in data set [9], 1.1 mL/min/kg. The figures for the AUC(0-t) at 24 h in data set [4] and in data set [7] were 68 µM·h and 35 µM·h, respectively. For the same molecule, the half-life in data set [5] was more than 2 h; in data set [10], 11 h; in data set [12], 36 h. Moreover, the fraction unbound in data set [6] amounted to 0.012; in data set [13] it was 0.021. Also, the IC50 is 16 µM at Cytochrome P450 2C8, more than 20 µM at Cytochrome P450 1A2 and more than 20 µM on Cytochrome P450 3A4.

These data come from ChEMBL document CHEMBL4616702 (ACS Med Chem Lett, 2020).
